Results taken from ChEMBL document CHEMBL5230096, “A comprehensive insight on the recent development of Cyclic Dependent Kinase inhibitors as anticancer agents” (Eur J Med Chem, 2020).
pIC50, pKi: −log10 of the molar value.

What was measured:
[1] = tested on: MCF7; experiment: Cytotoxicity against human MCF7 cells assessed as reduction in cell viability by MTT assay; assay type: functional, cell-based
[2] = tested on: Human immunodeficiency virus 1; experiment: Antiviral activity against HIV1; assay type: functional, organism-based
[3] = tested on: MCF7; experiment: Anticancer activity against human MCF7 cells assessed as reduction in cell viability incubated for 48 hrs by MTT assay; assay type: functional, cell-based; details: MCF7, 48 h
[4] = tested on: HCT-116; experiment: Anticancer activity against human HCT-116 cells assessed as reduction in cell viability incubated for 48 hrs by MTT assay; assay type: functional, cell-based; details: HCT-116, 48 h
[5] = target: T1, Cyclin-dependent kinase 2 (Homo sapiens, UniProt P24941)
Description: Inhibition of CDK2 (unknown origin)

[6] = target: Cyclin-dependent kinase 2/cyclin E (Homo sapiens, UniProt P24941); experiment: Inhibition of CDK2/Cyclin E (unknown origin) expressed in baculovirus infected Sf9 cells using histone H1 as substrate in presence of gamma32P-ATP by scintillation counter analysis
[7] = tested on: Panel NCI-60 (60 carcinoma cell lines); experiment: Antiproliferative activity against human Panel NCI-60 (60 carcinoma cell lines) cells assessed as inhibition of cell growth at 0.00001 M incubated for 48 hrs by sulforhodamine B assay; assay type: functional; parameters: scale not given: the % may be the effect or the level left; details: dose 10 µM
[8] = target: Cyclin-dependent kinase 1 (Homo sapiens, UniProt P06493); experiment: Inhibition of CDK1 (unknown origin) assessed as inhibition constant
[9] = target: Histone deacetylase; experiment: Inhibition of HDAC (unknown origin); assay type: protein assay, Homo sapiens
[10] = tested on: MCF7; experiment: Antiproliferative activity against human MCF7 cells assessed reduction in cell proliferation; assay type: functional, cell-based
[11] = tested on: B16-F10; experiment: Antiproliferative activity against mouse B16-F10 cells assessed reduction in cell proliferation; assay type: functional, cell-based
[12] = tested on: HeLa; experiment: Antiproliferative activity against human Hela cells assessed as reduction in cell viability by MTT assay; assay type: functional, cell-based
[13] = target: T1, Cyclin-dependent kinase 2; experiment: Inhibition of human CDK2 using TMB as substrate preincubated for 210 mins followed by substrate addition and measured after 15 to 25 mins by spectrophotometric analysis
[14] = tested on: MCF7; experiment: Antiproliferative activity against human MCF7 cells assessed as reduction in cell proliferation incubated for 48 hrs by Sulfo-Rhodamine-B stain (SRB) assay; assay type: functional, cell-based; details: MCF7, 48 h
[15] = target: T2, CDK2/Cyclin A2 (Homo sapiens, UniProt P24941); experiment: Inhibition of CDK2/cyclin A2 (unknown origin) using histone as substrate in presence of ATP by luminescent ADP detection assay; assay type: protein-complex assay
[16] = target: CDK9/cyclin T1 (Homo sapiens, UniProt P50750); experiment: Inhibition of CDK9/cyclin T1 (unknown origin) assessed as inhibition constant; assay type: protein-complex assay
[17] = target: T3, Protein cereblon/Cyclin-dependent kinase 9 (Homo sapiens) (UniProt P50750+Q96SW2); experiment: Protac activity at CRBN/CDK9 in human HCT-116 cells assessed as induction of CDK9 degradation at 10 uM incubated for 6 hrs by Western blot analysis; assay type: cell-based
[18] = target: T3, Protein cereblon/Cyclin-dependent kinase 9 (Homo sapiens); experiment: Protac activity at CRBN/CDK9 in human HCT-116 cells assessed as induction of CDK9 degradation at 20 uM incubated for 6 hrs by Western blot analysis; assay type: cell-based
[19] = target: T4, CDK2/Cyclin A2 (Homo sapiens) (UniProt P24941+P20248); experiment: Inhibition of CDK2/Cyclin A2 (unknown origin) at 10 uM by Kinase-Glo Plus luminescence kinase assay; assay type: protein-complex assay
[20] = tested on: MCF7; experiment: Antiproliferative activity against human MCF7 cells assessed as reduction in cell viability by MTT assay; assay type: functional, cell-based
[21] = target: T4, CDK2/Cyclin A2 (Homo sapiens); experiment: Inhibition of CDK2/Cyclin A2 (unknown origin) at 10 uM incubated for 40 mins in presence of ATP by Kinase-Glo Plus luminescence kinase assay; assay type: protein-complex assay
[22] = target: T2, CDK2/Cyclin A2; experiment: Inhibition of CDK2/Cyclin A2 (unknown origin) incubated for 40 mins in presence of ATP by Kinase-Glo Plus luminescence kinase assay; assay type: protein-complex assay
[23] = tested on: Panel NCI-60 (60 carcinoma cell lines); experiment: Antiproliferative activity against human Panel NCI-60 (60 carcinoma cell lines) assessed as reduction in cell viability at 10 uM; assay type: functional
[24] = target: Cyclin-dependent kinase 2/cyclin E1 (Homo sapiens, UniProt P24941); experiment: Inhibition of CDK2/cyclin E1 (unknown origin) expressed in Sf9 cells using histone H1 as substrate in presence of ATP by microplate reader analysis
[25] = tested on: MCF7; experiment: Antiproliferative activity against human MCF7 cells assessed as reduction in cell proliferation incubated for 3 days by calcein AM staining based fluorescent analysis; assay type: functional; details: MCF7, 72 h
[26] = tested on: K562; experiment: Antiproliferative activity against human K562 cells assessed as reduction in cell proliferation incubated for 3 days by calcein AM staining based fluorescent analysis; assay type: functional; details: K562, 72 h

T3 sequence (P50750 whole entry, looked up): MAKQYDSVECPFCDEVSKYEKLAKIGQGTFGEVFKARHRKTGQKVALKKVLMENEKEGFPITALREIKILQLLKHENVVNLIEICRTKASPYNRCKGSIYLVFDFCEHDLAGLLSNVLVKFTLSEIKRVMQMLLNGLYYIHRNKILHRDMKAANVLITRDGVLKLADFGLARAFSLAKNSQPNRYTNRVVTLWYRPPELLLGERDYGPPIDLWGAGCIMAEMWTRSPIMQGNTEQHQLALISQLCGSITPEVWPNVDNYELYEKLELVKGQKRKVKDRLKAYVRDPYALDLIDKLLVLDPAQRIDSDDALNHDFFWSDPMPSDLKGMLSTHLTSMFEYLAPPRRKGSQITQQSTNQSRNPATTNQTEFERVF
T3 sequence (Q96SW2 whole entry, looked up): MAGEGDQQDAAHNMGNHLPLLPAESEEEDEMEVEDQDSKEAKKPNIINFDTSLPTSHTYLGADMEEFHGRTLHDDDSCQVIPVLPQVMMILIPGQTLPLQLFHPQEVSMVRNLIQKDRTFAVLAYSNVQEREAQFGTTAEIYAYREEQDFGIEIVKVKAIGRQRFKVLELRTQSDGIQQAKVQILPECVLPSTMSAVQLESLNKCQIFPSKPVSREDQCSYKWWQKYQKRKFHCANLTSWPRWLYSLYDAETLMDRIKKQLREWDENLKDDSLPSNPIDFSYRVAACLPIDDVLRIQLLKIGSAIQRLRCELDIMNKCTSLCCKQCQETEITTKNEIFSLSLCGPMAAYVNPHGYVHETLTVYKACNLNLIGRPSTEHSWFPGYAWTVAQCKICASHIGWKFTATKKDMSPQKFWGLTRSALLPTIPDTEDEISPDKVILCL
Cyclin-dependent kinase 1, sequence (P06493 whole entry): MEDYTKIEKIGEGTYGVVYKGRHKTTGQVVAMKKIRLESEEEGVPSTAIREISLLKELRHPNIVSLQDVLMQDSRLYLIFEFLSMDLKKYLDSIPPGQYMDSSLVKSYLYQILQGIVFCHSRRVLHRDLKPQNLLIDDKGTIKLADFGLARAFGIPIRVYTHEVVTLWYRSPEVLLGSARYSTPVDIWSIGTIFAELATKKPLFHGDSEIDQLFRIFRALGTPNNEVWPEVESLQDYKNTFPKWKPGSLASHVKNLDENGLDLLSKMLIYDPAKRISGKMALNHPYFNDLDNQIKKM
CDK9/cyclin T1, sequence (O60563 whole entry): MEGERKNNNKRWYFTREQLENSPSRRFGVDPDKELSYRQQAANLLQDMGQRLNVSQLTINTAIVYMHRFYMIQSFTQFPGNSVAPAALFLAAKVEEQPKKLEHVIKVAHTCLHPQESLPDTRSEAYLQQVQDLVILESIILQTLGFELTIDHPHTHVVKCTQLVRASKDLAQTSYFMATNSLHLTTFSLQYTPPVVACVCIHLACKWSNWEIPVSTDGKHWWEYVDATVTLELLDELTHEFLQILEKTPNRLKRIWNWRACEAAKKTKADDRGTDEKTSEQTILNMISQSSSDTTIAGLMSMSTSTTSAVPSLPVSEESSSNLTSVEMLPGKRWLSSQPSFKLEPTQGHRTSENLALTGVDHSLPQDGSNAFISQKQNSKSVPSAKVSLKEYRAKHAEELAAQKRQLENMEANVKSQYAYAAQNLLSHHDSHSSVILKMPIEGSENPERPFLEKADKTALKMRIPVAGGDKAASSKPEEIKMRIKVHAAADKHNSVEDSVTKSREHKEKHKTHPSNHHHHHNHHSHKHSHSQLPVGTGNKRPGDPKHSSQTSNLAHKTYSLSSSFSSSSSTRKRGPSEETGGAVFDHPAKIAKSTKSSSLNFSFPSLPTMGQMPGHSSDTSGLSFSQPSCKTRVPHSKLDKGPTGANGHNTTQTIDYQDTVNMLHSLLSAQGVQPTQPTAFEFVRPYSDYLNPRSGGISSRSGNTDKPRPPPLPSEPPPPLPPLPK
CDK9/cyclin T1, sequence (P50750 whole entry): as the sequence (P50750 whole entry, looked up) above

## O=C(CCn1cc(COC(=O)c2c[nH]c3ccccc23)nn1)NC(CC(=O)c1cc2ccccc2oc1=O)c1ccccc1Cl (stereo not drawn)
[1]
  pIC50: 4.76

## CC(=O)N1C(=O)C(C(=O)c2ccc(F)cc2)C(=O)N(c2ccc(S(=O)(=O)Nc3nccs3)cc2)C1=S (stereo not drawn)
[2]
  pIC50: 5.49

## CC(=O)C(=NNc1ccc(-c2nc3ncccc3[nH]2)cc1)C(C)=O
[3]
  pIC50: 5.68
[4]
  pIC50: 5.77

## C[C@@H](CO)Nc1nc(N)c(N=O)c(OCC2CCCCC2)n1
[5]
  pIC50: 6.80

## O=c1[nH]cc(-c2ccc(O)cc2)c2nccn12
[6]
  pIC50: 5.89

## Cc1ccc(-n2cc(-c3ccccc3)c3c(SCC(=O)N/N=C\c4ccccc4[N+](=O)[O-])ncnc32)cc1
[7]
  Activity: <50%

## CC(=O)N1N=C(c2c(O)c3ccccc3oc2=O)CC1c1ccccc1Cl (stereo not drawn)
[8]
  pKi: 9.46

## COc1ccc(-n2c(-c3ccccc3)c(-c3ccccc3)c3c(SCC(=O)N/N=C\c4ccc(N(C)C)cc4)ncnc32)cc1
[7]
  Activity: <50%

## C[C@@H](CO)Nc1nc(N)c(/[N+]([O-])=N/C#N)c(OCC2CCCCC2)n1
[5]
  pIC50: 6.52

## O=C(CCCn1cc(CNC2CCCCC2)c(-c2ccccc2)n1)NO
[5]
  pIC50: 5.33
[9]
  IC50: 2.95 µM
[10]
  pIC50: 5.95
[11]
  pIC50: 5.41

## CCOC(=O)C1=C(Cn2cc(COc3ccccc3C3NC(=O)NC(CCl)=C3C(=O)OCC)nn2)NC(=O)NC1c1ccc([N+](=O)[O-])cc1 (stereo not drawn)
[12]
  pIC50: 4.74

## O=c1[nH]cc(-c2ccccc2F)c2nccn12
[6]
  pIC50: 5.49

## COc1ccccc1/C=C/C(=C(C#N)C#N)c1ccc(NS(=O)(=O)c2ccc(C)cc2)cc1
[13]
  pIC50: 5.53
[14]
  pIC50: 4.58

## O=c1[nH]cc(-c2ccccc2Cl)c2nccn12
[6]
  pIC50: 5.82

## CCOC(=O)C1=C(CCl)NC(=O)NC1c1ccc(OCc2cn(CC3=C(C(=O)OCC)C(c4ccc([N+](=O)[O-])cc4)NC(=O)N3)nn2)cc1 (stereo not drawn)
[12]
  pIC50: 4.74

## COc1ccc(-n2c(-c3ccccc3)c(-c3ccccc3)c3c(SCC(=O)N/N=C\c4ccccc4[N+](=O)[O-])ncnc32)cc1
[7]
  Activity: <50%

## Cc1ccc(S(=O)(=O)Nc2ccc(-c3ccnc(Nc4ccc(S(=O)(=O)Nc5nccc(C)n5)cc4)c3C#N)cc2)cc1
[13]
  pIC50: 5.75
[14]
  pIC50: 4.74

## O=C(CCCn1cc(CNC2CC2)c(-c2ccccc2)n1)NO
[5]
  pIC50: 5.43
[9]
  IC50: 2.76 µM
[10]
  pIC50: 5.53
[11]
  pIC50: 5.60

## CN1CCN(C(=O)c2cnn(-c3cc(NCc4ccccc4)ncn3)c2)CC1
[15]
  pIC50: > 7.70

## C/C(=N\N=C\c1ccccc1)c1c(O)c2ccccc2oc1=O
[16]
  pKi: 8.49

## O=C1CCC(N2C(=O)c3cccc(OCCCCCOc4ccc(CC(=O)Nc5cc(C6CCC6)[nH]n5)cc4)c3C2=O)C(=O)N1 (stereo not drawn)
[17]
  Activity: 56%
[18]
  Activity: 65%

## O=C1NN=C(Nc2ccccc2)/C1=C/Nc1ccc(O)cc1
[19]
  inhibition: 60%
[20]
  pIC50: 4.63

## CCOC(=O)c1cnn2c(-c3ccc(Cl)cc3)nc(NCc3ccccc3)nc12
[21]
  inhibition: 82.4%
[22]
  pIC50: 5.68
[23]
  inhibition at 10 µM: 41.8%

## O=C(c1cnn(-c2cc(NCc3ccccc3)ncn2)c1)N1CCOCC1
[15]
  pIC50: > 7.70

## Cc1ccc(-n2cc(-c3ccccc3)c3c(SCC(=O)N/N=C\c4ccc(N(C)C)cc4)ncnc32)cc1
[7]
  Activity: <50%

## NS(=O)(=O)c1ccc(S(=O)(=O)Nc2cccc3c(Cl)c[nH]c23)cc1
[14]
  pIC50: 4.44

## COc1ccc(NC(=O)c2cnn(-c3cc(NCc4ccccc4)ncn3)c2)cc1
[15]
  pIC50: > 7.70

## Clc1ccccc1Nc1nc(SCCc2ccccc2)nc2[nH]ncc12
[24]
  pIC50: 5.11
[25]
  pIC50: 4.72
[26]
  pIC50: 4.70
